According to patent US20110184006A1, “METHOD AND COMPOSITION FOR THERMALLY STABILIZING VITAMIN C WITHIN NANO LAYERS OF MONTMORILLONITE CLAY” (NATIONAL RESEARCH COUNCIL OF SRI LANKA, priority 2010, published 2011):

Columns and labels:
[1] = in blood plasma; cited from earlier work
[2] = Thermal stability: FTIR spectra after heating for 30 minutes; assay type: physicochemical
Experimental: Infrared (IR) spectroscopy was used to quantify samples. Nicolet 6700 FT-IR spectrophotometer was used to measure absorbance or transmittance value of samples. All samples were finely ground and mixed with fused KBr to form pellets in the measurements. Typical parameters included: scan range of 400-4000 cm^−1; resolution 4.00 cm^−1; and the number of scans were 32.
The FTIR spectra of the 0.5000 g calcium montmorillonite chelated with 0.2500 g of LAA heated at 100° C., 120° C., 140° C., 160° C., 180° C. and 200° C. for 30 minutes are shown in FIG. 10. As reference, the FTIR spectra of LAA at room temperature and after heating to 90, 120, 140, 160, 180 and 200° C. for 30 minutes are also shown in FIG. 10.
Further at 140° C., the structure of LAA is altered as the carbonyl stretch at 1750 cm^−1 was broader and the fingerprint region was changed.
First, 0.1000 g samples of the chelated clays were prepared as described in previous examples. Then to determine the thermal stability, 0.1000 g samples of 0.5000 g calcium montmorillonite chelated with 0.0500 g, 0.1000 g, 0.2500 g and 0.5000 g of LAA, were heated in an oven at 90° C. for 30 minutes. Pellets of the cooled samples were prepared with fused KBr and FTIR spectra of these samples were obtained. Reference spectra of the calcium montmorillonite chelated clays before heating were also obtained for comparison. […]

structure (FTIR) after heating at 140° C. ([2]; 140° C., 30 minutes): altered
Structure (SMILES): O=C1O[C@H]([C@@H](O)CO)C(O)=C1O [LAA, L-ascorbic acid]
biological half-life [1]: about 30 minutes
change of structure (FTIR) as the temperature is increased ([2]; heated 30 minutes at 90/100 to 200° C.): changes gradually as the temperature is increased until it is completely destroyed
